Source: ChEMBL document CHEMBL1137525, “Additional level of information about complex interaction between non-nucleoside inhibitor and HIV-1 reverse transcriptase using biosensor-based thermodynamic analysis” (Bioorg Med Chem, 2007)

Tests used:
[1] = target: T1, Human immunodeficiency virus type 1 reverse transcriptase (Human immunodeficiency virus 1, UniProt Q72547, K103N); experiment: Binding affinity to HIV1 reverse transcriptase K103N mutant at 35 degC
[2] = target: T1, Human immunodeficiency virus type 1 reverse transcriptase; experiment: Binding affinity to HIV1 reverse transcriptase K103N mutant at 5 degC
[3] = target: T2, Human immunodeficiency virus type 1 reverse transcriptase (Human immunodeficiency virus 1, UniProt Q72547, Y181C); experiment: Binding affinity to HIV1 reverse transcriptase Y181C mutant at 5 degC
[4] = target: T2, Human immunodeficiency virus type 1 reverse transcriptase; experiment: Binding affinity to HIV1 reverse transcriptase Y181C mutant at 25 degC
[5] = target: T2, Human immunodeficiency virus type 1 reverse transcriptase; experiment: Binding affinity to HIV1 reverse transcriptase Y181C mutant at 15 degC
[6] = target: T2, Human immunodeficiency virus type 1 reverse transcriptase; experiment: Binding affinity to HIV1 reverse transcriptase Y181C mutant at 35 degC
[7] = target: T1, Human immunodeficiency virus type 1 reverse transcriptase; experiment: Binding affinity to HIV1 reverse transcriptase K103N mutant at 15 degC
[8] = target: T1, Human immunodeficiency virus type 1 reverse transcriptase; experiment: Binding affinity to HIV1 reverse transcriptase K103N mutant at 25 degC

CCC(=O)c1ccc(F)c([C@@H]2C[C@@H]2NC(=O)Nc2ccc(C#N)cn2)c1O
Kd [1]: 3.49 nM
Kd [2]: 0.596 nM
Kd [3]: 0.627 nM
Kd [4]: 1.5 nM
Kd [5]: 0.79 nM
Kd [6]: 2.89 nM
Kd [7]: 0.997 nM
Kd [8]: 4.91 nM
